One test concerns PATC53 cells. Kind of test: PATC53 Long Term Phenotypic Assay (14 days, crystal violet viability). Format: cell-based. The conditions noted are these: 336 h. The procedure, abridged: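 Cells seeded at 250 per well, allowed 24 h to settle, then treated with 1:3 serial dilutions of compound for 14 days at 37 °C, 5% CO2. Viability measured by crystal violet staining, solubilised in 10% HOAc, absorbance 590 nm; IC50 from four-parameter logistic fit.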

The next test relates to DOHH2 cells. Nature of the test: DOHH2 Long Term Phenotypic Assay (7 days, Cell Titer-Glo viability). Format: cell-based. The conditions noted are these: Homo sapiens, DOHH-2, 168 h, Cell Titer-Glo 2.0. The procedure, abridged: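 DOHH2 lymphoma cells (250 per well) in RPMI-1640 with 10% FBS were exposed to 1:3 serially diluted compounds for 7 days at 37 °C, 5% CO2. Viability was read by CellTiter-Glo 2.0 luminescence, and IC50 values came from four-parameter logistic fits.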
For orientation: ATP-based viability assays read luminescence as a measure of living cells.

The subject of test [1] is PANC-1 (pancreatic ductal adenocarcinoma) xenograft. Nature of the test: Anti-tumor effects in PANC-1 mouse xenograft model. The class given is in vivo. The conditions noted are these: BID, 28 days, C.B-17 SCID mice. As for the experimental part: The effect of the compounds of Examples 1 and 2 on tumor growth was assessed in a PANC-1 (pancreatic ductal adenocarcinoma) mouse xenograft model. Female C.B -Igh-I^b/IcrTac-Prkdc^scid (C.B-17 SCID) mice were injected subcutaneously in the right flank with a suspension of […] cells (5 million cells with 50% Matrigel (Corning #356231) in sterile Dulbecco's phosphate buffered saline (DPBS, Life Technologies #14190-144). After implantation, tumor volume (TV) was measured weekly and mice bearing tumors with volumes ˜200 mm^3 were randomized into treatment groups of 8 mice each. Mice were dosed by oral gavage, twice daily for 28 days with either vehicle or 1 and 2 at the doses reported in Table 6 and Table 7 respectively. The doses were scaled to the body weights (BW) of individual animals at a dosing volume of 5 mL/Kg. Throughout the duration of study tumor growth was assessed by caliper measurement and treatment response was determined by percent tumor growth inhibition (% TGI; calculated as TGI %=(Ci−Ti)/(Ci−C0)*100%; Ci and Ti are the mean tumor volumes of the vehicle and treatment groups on the measurement day, respectively; C0 is the mean tumor volume of the vehicle group on day 0 (i.e. the day before treatment started). Mouse body weight was measured bi-weekly and reported as percentage of BW change from day 0 (calculated as Body Weight Change %=(BWi−BW0)/BW0*100%; BWi and BW0 are body weight of an individual mouse on measurement day i and on day 0, respectively). Statistical significance was calculated by repeated-measures two-way ANOVA with multiple comparisons and Tukey correction using GraphPad Prism 8.0.

The structures appear in SMILES notation.

These results are taken from patent US20230416261A1, “ETHANEDIAMINE-HETEROCYCLE DERIVATIVES AS INHIBITORS OF PROTEIN ARGININE METHYLTRANSFERASES” (Board of Regents, The University of Texas System, priority 2021, published 2023).

The term IC50 denotes the concentration needed to halve the response being measured.

With `CNCCN(C)Cc1nn2c(c1C1CCC(COC)(COC)CC1)CN(C(=O)C1CCC1)CC2` [Example 1, (3-(4,4-Bis(methoxymethyl)cyclohexyl)-2-((methyl(2-(methylamino)ethyl)amino)methyl)-6,7-dihydropyrazolo[1,5-a]pyrazin-5(4H)-yl)(cyclobutyl)methanone], the IC50 in the test on PATC53 cells was 45 nM; in the test with DOHH2 cells it was 66 nM. Also, the entries for the “Tumor Growth Inhibition % (TGI %; day 28)” value in test [1] (150 mg/Kg PO) and in test [1] (225 mg/Kg PO) were 49% and 68%, respectively.
In the same order, the values of `COCC1(COC)CCC(c2c(CN(C)CCN)nn3c2CN(C(=O)C(C)(C)C)CC3)CC1` [Example 2, 1-(2-(((2-aminoethyl)(methyl)amino)methyl)-3-(4,4-bis(methoxymethyl)cyclohexyl)-6,7-dihydropyrazolo[1,5-a]pyrazin-5(4H)-yl)-2,2-dimethylpropan-1-one] are 152 nM, 158 nM, 48% and 70%.
